Data published in patent US20230250096A1, “SUBSTITUTED PHENYL-1H-PYRROLO[2,3-c] PYRIDINE DERIVATIVES” (Janssen Pharmaceutica NV, priority 2021, published 2023).
pIC50: −log10 of the molar value.

How the values were obtained:
[1] = test system: MEIS1 mRNA expression; assay: MEIS1 mRNA expression assay (Quantigene Singleplex) in MOLM14 cells; format: cell-based, human; conditions: 48 hours incubation
How it was run: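 MOLM14 cells, 3,750/well, exposed to increasing compound concentrations for 48 h. MEIS1 mRNA measured by QuantiGene Singleplex branched-DNA hybridization (lysis 45 min, hybridization 18–22 h, both 55 °C), normalized to RPL28. IC50 fitted to background-corrected fold change versus DMSO.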

[2] = biological target: T1, menin/MLL (terbium chelate-labeled menin, FITC-MBM1 peptide) (Homo sapiens, UniProt O00255, T541A); assay: Menin/MLL homogenous time-resolved fluorescence (HTRF) assay; format: binding; conditions: 30 min incubation
T1 construct: Menin (a.a 1-610-6xhis tag, 2.3 mg/mL in 20 mM Hepes)
T1 sequence (O00255 with tags, fused parts or gaps T541A): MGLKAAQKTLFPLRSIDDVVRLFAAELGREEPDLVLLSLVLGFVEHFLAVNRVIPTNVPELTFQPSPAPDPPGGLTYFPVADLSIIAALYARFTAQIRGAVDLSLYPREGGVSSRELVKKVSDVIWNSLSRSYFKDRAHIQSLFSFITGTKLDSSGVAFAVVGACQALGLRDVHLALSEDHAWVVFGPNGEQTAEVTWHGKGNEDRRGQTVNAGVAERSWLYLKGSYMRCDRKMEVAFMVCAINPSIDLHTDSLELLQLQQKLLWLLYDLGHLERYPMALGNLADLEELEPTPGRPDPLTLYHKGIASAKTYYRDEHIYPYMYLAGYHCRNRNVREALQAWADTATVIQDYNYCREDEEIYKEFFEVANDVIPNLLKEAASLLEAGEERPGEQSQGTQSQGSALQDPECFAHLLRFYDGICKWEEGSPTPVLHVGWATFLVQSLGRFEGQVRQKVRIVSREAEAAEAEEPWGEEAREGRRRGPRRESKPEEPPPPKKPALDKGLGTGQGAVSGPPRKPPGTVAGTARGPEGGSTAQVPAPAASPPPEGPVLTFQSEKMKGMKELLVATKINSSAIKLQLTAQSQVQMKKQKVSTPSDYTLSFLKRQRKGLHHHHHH
How it was run: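 Terbium-labeled menin (a.a. 1-610, His-tagged; […]) pre-incubated 30 min with compound, then 75 nM FITC-MBM1 peptide added for 15 min at ambient temperature in Tris pH 7.5 buffer, 0.5% DMSO. HTRF 520/490 nm ratio read; IC50 from 11-point four-fold titrations, typically from 10 μM.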

Compound | pIC50 ([1]; Homo sapiens, MOLM-14, 48 h) | pIC50 [2] | pIC50 [1]
Cc1cncc2c1c(C[C@@H]1CN[C@H](C)C1)cn2-c1ccc(F)cc1C(=O)N(C)C(C)C [Compound 504] | < 6.00 | 7.62 | 
Cc1cncc2c1c(CC1CN([C@@H](C(C)C)[C@H]3C[C@H](N4CCN(S(C)(=O)=O)CC4)C3)C1)cn2-c1ccc(F)cc1C(=O)N(C)C(C)C (single isomer, unassigned) [Compound 34b] | 7.60 | 10.04 | 
CCN(C(=O)c1cc(F)ccc1-n1cc(C[C@H]2CCN(CC3CCN(C(C)=O)CC3)C2)c2c(C)cncc21)C(C)C [Compound 256] | 7.70 | 10.14 | 
Cc1cncc2c1c(C[C@H]1CCN(CC3COC3)C1)cn2-c1ccc(F)cc1C(=O)N(C)C(C)C (single isomer, unassigned) [Compound 47] | 7.26 | 10.38 | 
Cc1cncc2c1c(C[C@@H]1CCN([C@H](CN(C)C)C3CCOCC3)C1)cn2-c1ccc(F)cc1C(=O)N(C)C(C)C (single isomer, unassigned) [Compound 240b] | 7.42 | 9.82 | 
Cc1cncc2c1c(C[C@@H]1CCN(CC3CCN(C(=O)C4(O)CC4)CC3)C1)cn2-c1ccc(F)cc1C(=O)N(C)C(C)C [Compound 249] | 8.15 | 10.64 | 
CC(=O)N1CCC2(CCCC(N3CC(Cc4cn(-c5ccc(F)cc5C(=O)N(C)C(C)C)c5cncc(C)c45)C3)C2)C1 (stereo not shown) [Compound 303] | ~7.11 | 9.75 | 
CC(=O)N1CCC(CN2CC[C@@H](Cc3cn(-c4ccc(F)cc4[S@@]4(=O)=NCCC4)c4cncc(C)c34)C2)CC1 (single isomer, unassigned) [Compound 214a] | ~6.22 | 8.89 | 
Cc1cncc2c1c(C[C@@H]1CCN(CC3CCOCC3)C1)cn2-c1ccc(F)cc1C(=O)N1CCC[C@]1(C)CO (single isomer, unassigned) [Compound 362a] | 6.74 | 9.83 | 
COCCN(C)CCC[C@H](C(C)C)N1CC[C@H](Cc2cn(-c3ccc(F)cc3C(=O)N(C)C(C)C)c3cncc(C)c23)C1 (single isomer, unassigned) [Compound 2a] | 7.44 | 10.62 | 
Cc1cncc2c1c(CC1CCN(C[C@H]3CC[C@H](NS(C)(=O)=O)CC3)C1)cn2-c1ccc(F)cc1C(=O)N(C)C(C)C (single isomer, unassigned) [Compound 68] | 7.49 | 10.37 | 
Cc1cncc2c1c(CC1CN(CC3(O)CCOCC3)C1)cn2-c1ccc(F)cc1C(=O)N(C)C(C)C [Compound 307] | 7.32 | 10.36 | 
Cc1cncc2c1c(C[C@@H]1CCN([C@@H](CN(C)C)C3CCOCC3)C1)cn2-c1ccc(F)cc1C(=O)N(C)C(C)C (single isomer, unassigned) [Compound 240a] | 6.54 | 9.39 | 
CCC([C@H]1C[C@@H](N2C[C@H]3CN(C(C)=O)C[C@@H]3C2)C1)N1CC[C@@H](Cc2cn(-c3ccc(F)cc3C(=O)N(C)C(C)C)c3cncc(Cl)c23)C1 (stereo partly shown) [Compound 26b] |  | ~10.44 | 7.54
CC(=O)N1CCC([C@@H](C)N2CC[C@H](Cc3cn(-c4ccc(F)cc4[S@](=N)(=O)C(C)C)c4cncc(C)c34)C2)CC1 (single isomer, unassigned) [Compound 232a] | ~6.35 | 9.20 | 
CNC(=O)c1cccc(CN2CC(Cc3cn(-c4ccc(F)cc4C(=O)N(C)C(C)C)c4cncc(C)c34)C2)c1 [Compound 283] | 6.36 | 9.21 | 
Cc1cncc2c1c(CC1CCN(CC3CCC(=O)NC3)CC1)cn2-c1ccc(F)cc1C(=O)N(C)C(C)C (stereo not shown) [Compound 195] | 6.81 | 9.82 | 
COCC1CCCN1C(=O)c1cc(F)ccc1-n1cc(CC2CN(CC3CCOCC3)C2)c2c(C)cncc21 (stereo not shown) [Compound 267] | 6.78 | 9.62 | 
CC(=O)N1CC[C@H](CN2CCC(Cc3cn(-c4ccc(F)cc4C(=O)N(C)C(C)C)c4cncc(C)c34)CC2)C1 [Compound 113] | ~6.31 | 9.19 | 
CC(=O)N1[C@@H](C)CC(N2CC(Cc3cn(-c4ccc(F)cc4C(=O)N(C)C(C)C)c4cncc(C)c34)C2)C[C@@H]1C (stereo partly shown) [Compound 302] | 7.11 | 10.30 | 
Cc1cncc2c1c(CC1CN(CC3CCOCC3)C1)cn2-c1ccc(F)cc1C(=O)N(C)C1(CO)CCC1 [Compound 276] | ~6.34 | 9.27 | 

Compound | pIC50 ([1]; Homo sapiens, MOLM-14, 48 h) | pIC50 [2] | pIC50 [1]
Cc1cncc2c1c(C[C@H]1CCN([C@@H](C)C3CCOCC3)C1)cn2-c1ccc(F)cc1[S@](=N)(=O)C(C)C (single isomer, unassigned) [Compound 181b] | 5.72 | 8.34 | 
Cc1cncc2c1c(CC1CN(C[C@H]3CC[C@H](C(=O)N(C)C)CC3)C1)cn2-c1ccc(F)cc1C(=O)N(C)C(C)C [Compound 142] | 8.00 | 10.07 | 
Cc1cncc2c1c(C[C@@H]1CCN([C@H](CCC3OCCO3)C(C)C)C1)cn2-c1ccc(F)cc1C(=O)N(C)C(C)C (single isomer, unassigned) [Compound 367] | < 6.00 | 9.70 | 
COCC(=O)N1CC(CN2CCC(Cc3cn(-c4ccc(F)cc4C(=O)N(C)C(C)C)c4cncc(C)c34)CC2)C1 [Compound 111] | ~6.15 | 9.13 | 
Cc1cncc2c1c(C[C@H]1CCN(CC3(C)CCN(C(N)=O)CC3)C1)cn2-c1ccc(F)cc1C(=O)N(C)C(C)C [Compound 218] | 7.32 | 10.03 | 
Cc1cncc2c1c(CC1CNC(CC3CCOCC3)C1)cn2-c1ccc(F)cc1C(=O)N(C)C(C)C (single isomer, unassigned) [Compound 134a] |  | 10.49 | 7.07
COCC[C@H](C1CCOCC1)N1CC[C@@H](Cc2cn(-c3ccc(F)cc3C(=O)N(C)C(C)C)c3cncc(C)c23)C1 (single isomer, unassigned) [Compound 252a] | 7.16 | 9.47 | 
Cc1cncc2c1c(C[C@@H]1CCN(CC3COC3)C1)cn2-c1ccc(F)cc1C(=O)N(C)C(C)C (single isomer, unassigned) [Compound 46] | 7.04 | 10.33 | 
COCCNCCCC(C(C)C)N1CC[C@H](Cc2cn(-c3ccc(F)cc3C(=O)N(C)C(C)C)c3cncc(C)c23)C1 (mixture of isomers) [Compound 15] | > 9.10 | 10.40 | 
CC[C@H]([C@H]1C[C@H](N2C[C@H]3CN(C(C)=O)C[C@@H]3C2)C1)N1CC[C@H](Cc2cn(-c3ccc(F)cc3C(=O)N(C)C(C)C)c3cncc(Cl)c23)C1 (single isomer, unassigned) [Compound 27b] | 7.72 | 10.42 | 
Cc1cncc2c1c(C[C@@H]1CCN(CC3CCOCC3)C1)cn2-c1ccc(F)cc1C(=O)N1CC[C@H](O)C1(C)C (single isomer, unassigned) [Compound 364b] | ~6.17 | 9.53 | 
CCC(C1CCN(C(C)=O)CC1)N1CC[C@@H](Cc2cn(-c3ccc(F)cc3C(=O)N(C)C(C)C)c3cncc(C)c23)C1 (single isomer, unassigned) [Compound 247] |  | 9.75 | 6.94
Cc1cncc2c1c(C=C1CCN(C)C1)cn2-c1ccc(F)cc1C(=O)N(C)C(C)C (single isomer, unassigned) [Compound 524b] | 5.67 | 8.06 | 
Cc1cncc2c1c(C[C@@H]1CCN(CC3CCOCC3)C1)cn2-c1ccc(F)cc1[S@](=N)(=O)C(C)C (single isomer, unassigned) [Compound 78a] | ~6.16 | 8.91 | 
CC(=O)N1CCC(CN2CC[C@H](Cc3cn(-c4ccc(F)cc4S4(=O)=NCCC4)c4cncc(C)c34)C2)CC1 (mixture of isomers) [Compound 224] | ~5.41 | 8.06 | 
Cc1cncc2c1c(C[C@H]1CCN(CC3CCOCC3)C1)cn2-c1ccc(F)cc1[S@@](=N)(=O)C(C)C (single isomer, unassigned) [Compound 78d] | 6.27 | 9.06 | 
Cc1cncc2c1c(C[C@H]1CCN(CC3CCCC(=O)N3)C1)cn2-c1ccc(F)cc1C(=O)N(C)C(C)C (mixture of isomers) [Compound 89] | ~6.05 | 9.74 | 
Cc1cncc2c1c(CC1CN(CC3CCOCC3)C1)cn2-c1ccc(F)cc1C(=O)N(C)[C@H]1C[C@@H](O)C1 [Compound 274] | < 6.00 | 8.62 | 
CNC(=O)[C@H]1CC[C@@H](CN2CC(Cc3cn(-c4ccc(F)cc4C(=O)N(C)C(C)C)c4cncc(C)c34)C2)CC1 [Compound 241] | 6.76 | 10.08 | 
COCC[C@@H](C1CCOCC1)N1CC[C@@H](Cc2cn(-c3ccc(F)cc3C(=O)N(C)C(C)C)c3cncc(C)c23)C1 (single isomer, unassigned) [Compound 252b] | 6.50 | 9.60 | 
